Laboratory results reported in ChEMBL document CHEMBL1909046, “DrugMatrix in vitro pharmacology data”.

Tests used:
[1] = DRUGMATRIX: Calcium Channel Type L, Dihydropyridine radioligand binding (ligand: [3H] Nitrendipine); type: cell membranes, Rattus norvegicus, Wistar, Cerebral cortex, Membrane; conditions: Not Active = under 50% inhibition at 10 µM
Cathepsin G = molecular target: T1, Cathepsin G (Homo sapiens, UniProt P08311); type: tissue-based; conditions: neutrophil;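 also: inhibition of Cathepsin G enzyme activity, tested on an AMC-conjugated peptide substrate; in other assays of this panel Not Active means under 50% inhibition at 10 µM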
T1 sequence (P08311 whole entry): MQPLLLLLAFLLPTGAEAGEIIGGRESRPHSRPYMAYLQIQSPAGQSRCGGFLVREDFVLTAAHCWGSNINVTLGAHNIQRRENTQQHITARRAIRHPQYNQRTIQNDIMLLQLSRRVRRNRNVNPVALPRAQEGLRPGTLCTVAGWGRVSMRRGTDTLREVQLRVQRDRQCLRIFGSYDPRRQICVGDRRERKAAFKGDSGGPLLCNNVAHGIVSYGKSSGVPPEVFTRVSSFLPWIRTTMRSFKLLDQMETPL

[2] = molecular target: Kappa-type opioid receptor (Homo sapiens, UniProt P41145); test: DRUGMATRIX: Opiate kappa (OP2, KOP) radioligand binding (ligand: [3H] Diprenorphine); type: cell membranes, HEK293, Membrane; conditions: Not Active = under 50% inhibition at 10 µM
Sequence of Kappa-type opioid receptor (P41145 whole entry): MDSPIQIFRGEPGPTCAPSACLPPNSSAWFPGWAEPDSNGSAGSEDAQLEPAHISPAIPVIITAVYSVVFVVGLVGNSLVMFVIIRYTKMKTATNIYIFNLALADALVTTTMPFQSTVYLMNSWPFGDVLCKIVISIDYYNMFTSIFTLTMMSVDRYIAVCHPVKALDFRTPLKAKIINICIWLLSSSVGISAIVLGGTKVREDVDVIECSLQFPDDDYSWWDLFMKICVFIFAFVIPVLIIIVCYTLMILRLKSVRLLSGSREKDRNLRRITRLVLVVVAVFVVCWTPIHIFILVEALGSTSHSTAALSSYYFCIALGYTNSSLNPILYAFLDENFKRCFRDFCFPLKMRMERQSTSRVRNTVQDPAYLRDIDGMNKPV

[3] = molecular target: Sodium-dependent noradrenaline transporter (Homo sapiens, UniProt P23975); test: DRUGMATRIX: Norepinephrine Transporter radioligand binding (ligand: [125I] RTI-55); type: cell membranes, MDCK, Membrane; conditions: mdck; Not Active = under 50% inhibition at 10 µM
Sequence of Sodium-dependent noradrenaline transporter (P23975 whole entry): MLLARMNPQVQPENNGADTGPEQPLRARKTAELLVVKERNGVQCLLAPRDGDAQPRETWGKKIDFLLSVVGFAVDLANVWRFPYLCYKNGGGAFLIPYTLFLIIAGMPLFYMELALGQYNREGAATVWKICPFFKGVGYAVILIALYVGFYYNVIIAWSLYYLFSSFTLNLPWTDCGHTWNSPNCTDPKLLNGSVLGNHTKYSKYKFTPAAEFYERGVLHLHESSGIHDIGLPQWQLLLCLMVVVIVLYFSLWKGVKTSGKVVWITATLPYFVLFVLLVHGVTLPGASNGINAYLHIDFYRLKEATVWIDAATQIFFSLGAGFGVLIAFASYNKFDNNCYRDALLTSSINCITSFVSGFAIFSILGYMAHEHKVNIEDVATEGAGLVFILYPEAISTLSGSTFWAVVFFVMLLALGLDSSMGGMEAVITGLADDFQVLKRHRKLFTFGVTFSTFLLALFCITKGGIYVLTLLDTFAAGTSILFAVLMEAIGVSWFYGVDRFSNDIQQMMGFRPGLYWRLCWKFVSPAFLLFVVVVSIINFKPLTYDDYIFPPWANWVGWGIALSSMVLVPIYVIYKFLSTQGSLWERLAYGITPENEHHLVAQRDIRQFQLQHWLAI

[4] = molecular target: T2, Alpha-1D adrenergic receptor (Homo sapiens, UniProt P25100); type: cell membranes, HEK293, Membrane; also: in other assays of this panel Not Active means under 50% inhibition at 10 µM
T2 sequence (P25100 whole entry): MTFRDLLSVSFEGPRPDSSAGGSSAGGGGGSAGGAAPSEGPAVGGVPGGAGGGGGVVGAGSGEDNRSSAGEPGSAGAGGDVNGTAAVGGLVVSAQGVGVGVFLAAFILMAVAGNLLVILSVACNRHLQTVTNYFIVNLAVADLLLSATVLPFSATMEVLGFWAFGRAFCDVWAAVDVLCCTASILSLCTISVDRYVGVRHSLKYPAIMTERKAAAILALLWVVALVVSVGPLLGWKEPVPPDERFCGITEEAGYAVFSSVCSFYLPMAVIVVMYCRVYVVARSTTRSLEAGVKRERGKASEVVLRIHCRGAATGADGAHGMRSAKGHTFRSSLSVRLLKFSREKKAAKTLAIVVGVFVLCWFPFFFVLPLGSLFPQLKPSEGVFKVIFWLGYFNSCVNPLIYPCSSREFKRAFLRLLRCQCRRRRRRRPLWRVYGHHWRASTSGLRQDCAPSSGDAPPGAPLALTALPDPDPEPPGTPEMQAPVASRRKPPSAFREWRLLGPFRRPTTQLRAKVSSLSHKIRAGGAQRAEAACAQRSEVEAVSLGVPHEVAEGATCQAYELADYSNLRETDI

Cytochrome P450 2D6 = Cytochrome P450 2D6 (Homo sapiens, UniProt P10635); conditions: bti-tn-5b1-4; also: in other assays of this panel Not Active means under 50% inhibition at 10 µM
Sequence of Cytochrome P450 2D6 (P10635 whole entry): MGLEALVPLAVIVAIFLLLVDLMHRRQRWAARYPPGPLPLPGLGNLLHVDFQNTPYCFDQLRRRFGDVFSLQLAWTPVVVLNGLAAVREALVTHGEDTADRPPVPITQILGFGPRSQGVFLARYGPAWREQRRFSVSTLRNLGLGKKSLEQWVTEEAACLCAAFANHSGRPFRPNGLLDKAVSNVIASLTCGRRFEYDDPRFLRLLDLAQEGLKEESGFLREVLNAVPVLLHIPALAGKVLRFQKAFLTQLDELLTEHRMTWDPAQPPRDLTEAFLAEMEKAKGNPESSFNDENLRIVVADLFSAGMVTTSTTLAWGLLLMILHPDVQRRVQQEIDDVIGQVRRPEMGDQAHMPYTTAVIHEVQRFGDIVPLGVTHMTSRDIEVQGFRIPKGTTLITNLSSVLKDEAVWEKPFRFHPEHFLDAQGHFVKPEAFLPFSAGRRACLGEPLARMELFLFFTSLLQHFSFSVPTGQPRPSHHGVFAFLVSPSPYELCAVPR

Mu-type opioid receptor = Mu-type opioid receptor (Homo sapiens, UniProt P35372); test: DRUGMATRIX: Opiate mu (OP3, MOP) radioligand binding (ligand: [3H] Diprenorphine); type: cell membranes, CHO-K1, Membrane; conditions: Not Active = under 50% inhibition at 10 µM
Sequence of Mu-type opioid receptor (P35372 whole entry): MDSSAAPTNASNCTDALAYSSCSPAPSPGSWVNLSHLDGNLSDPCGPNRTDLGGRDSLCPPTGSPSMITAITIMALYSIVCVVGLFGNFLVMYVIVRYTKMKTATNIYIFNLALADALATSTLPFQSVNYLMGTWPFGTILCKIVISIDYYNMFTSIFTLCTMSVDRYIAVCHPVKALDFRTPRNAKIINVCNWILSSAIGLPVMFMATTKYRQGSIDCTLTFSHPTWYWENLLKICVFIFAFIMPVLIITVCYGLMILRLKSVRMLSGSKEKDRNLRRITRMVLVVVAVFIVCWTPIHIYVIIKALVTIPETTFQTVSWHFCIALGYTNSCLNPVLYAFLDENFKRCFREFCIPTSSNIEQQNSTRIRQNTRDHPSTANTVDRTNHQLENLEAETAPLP

Compound	IC50 [1]	Ki [1]	IC50 (Cathepsin G)	IC50 ([2]; hek293)	IC50 [3]	IC50 ([4]; hek293)	IC50 (Cytochrome P450 2D6)	Ki (Cytochrome P450 2D6)	IC50 (Mu-type opioid receptor; cho-k1)	IC50 ([4]; read-out: IC50) [nM]	Ki ([4]; read-out: Ki) [nM]	Ki [2] [nM]	IC50 ([2]; read-out: IC50) [nM]	Ki (Mu-type opioid receptor) [nM]	IC50 (Mu-type opioid receptor; read-out: IC50) [nM]	IC50 ([1]; read-out: IC50) [nM]	Ki ([1]; read-out: Ki) [nM]	Ki (Cathepsin G)	Ki [3]	Ki ([4]; hek293)
CCCCC(=O)N(Cc1ccc(-c2ccccc2-c2nnn[nH]2)cc1)[C@H](C(=O)O)C(C)C	Not Active	Not Active	Not Active	Not Active	Not Active	Not Active	Not Active	Not Active	Not Active											
O=C(O)COc1ccc(C(=O)c2cccs2)c(Cl)c1Cl	Not Active	Not Active	Not Active	Not Active	Not Active	Not Active	Not Active	Not Active	Not Active											
CN1[C@@H]2CC[C@H]1C[C@@H](OC(c1ccccc1)c1ccccc1)C2 [BENZTROPINE]			Not Active	Not Active			Not Active	Not Active	Not Active	52	26									
C[C@@](Cc1ccc(O)c(O)c1)(NN)C(=O)O.O [CARBIDOPA]	Not Active	Not Active	Not Active	Not Active	Not Active	Not Active	Not Active	Not Active	Not Active											
CN1CCN(C2=Nc3cc(Cl)ccc3Nc3ccccc32)CC1 [CLOZAPINE]			Not Active	Not Active			Not Active	Not Active	Not Active											
CC(C)NC[C@@H](O)COc1cccc2ccccc12 [DEXPROPRANOLOL]			Not Active	Not Active		Not Active	Not Active	Not Active	Not Active											
CC(C)NC[C@H](O)COc1cccc2ccccc12 [LEVOPROPRANOLOL]			Not Active	Not Active		Not Active	Not Active	Not Active	Not Active											
O=C(O)CCCCC1CCSS1 (stereo not drawn) [LIPOIC ACID, ALPHA]	Not Active	Not Active	Not Active	Not Active	Not Active	Not Active	Not Active	Not Active	Not Active											
CN(C)C(=O)C(CCN1CCC(O)(c2ccc(Cl)cc2)CC1)(c1ccccc1)c1ccccc1 [LOPERAMIDE]			Not Active			Not Active														
Clc1ccc(COC(Cn2ccnc2)c2ccc(Cl)cc2Cl)c(Cl)c1 (stereo not drawn) [MICONAZOLE]			Not Active							3050	1500	2640	6590	2460	6060					
Oc1ccc2c3c1O[C@H]1[C@@H](O)CC[C@@]4(O)[C@@H](C2)N(CC2CCC2)CC[C@]314 [NALBUPHINE]			Not Active		Not Active	Not Active														
C[C@]12C=CC(=O)C=C1CC[C@@H]1[C@@H]2C(=O)C[C@@]2(C)[C@H]1CC[C@]2(O)C(=O)CO [PREDNISONE]	Not Active	Not Active	Not Active	Not Active	Not Active	Not Active			Not Active											
OCCOCCN1CCN(C2=Nc3ccccc3Sc3ccccc32)CC1 [QUETIAPINE]			Not Active	Not Active	Not Active		Not Active	Not Active	Not Active	96.6	47.5									
COC(=O)[C@H]1[C@H]2C[C@@H]3c4[nH]c5cc(OC)ccc5c4CCN3C[C@H]2C[C@@H](OC(=O)c2cc(OC)c(OC)c(OC)c2)[C@@H]1OC [RESERPINE]			Not Active	Not Active	Not Active	Not Active	Not Active	Not Active						1690	4150	821	528			
O=C(O)c1ccccc1O [SALICYLIC ACID]	Not Active	Not Active	Not Active		Not Active	Not Active	Not Active	Not Active												
C[S+]([O-])c1ccc(-c2nc(-c3ccncc3)c(-c3ccc(F)cc3)[nH]2)cc1 (stereo not drawn) [SB-203580]			Not Active	Not Active	Not Active	Not Active			Not Active											
CC1CCC(NC(=O)N(CCCl)N=O)CC1 (stereo not drawn) [SEMUSTINE]	Not Active	Not Active	Not Active	Not Active	Not Active	Not Active	Not Active	Not Active	Not Active											
O=C1C[C@@H]2OCC=C3CN4CC[C@]56c7ccccc7N1[C@H]5[C@H]2[C@H]3C[C@H]46 [STRYCHNINE]	Not Active	Not Active	Not Active		Not Active	Not Active	Not Active	Not Active												
C[N+](C)(C)CCOC(=O)CCC(=O)OCC[N+](C)(C)C.[Cl-].[Cl-] [SUCCINYLCHOLINE CHLORIDE]	Not Active	Not Active	Not Active		Not Active	Not Active	Not Active	Not Active	Not Active											
Nc1ccc(S(=O)(=O)NC(=O)c2ccccc2)cc1 [SULFABENZAMIDE]	Not Active	Not Active	Not Active	Not Active	Not Active	Not Active	Not Active	Not Active	Not Active											
CCCCCCCCNC(C)C(O)c1ccc(SC(C)C)cc1 (stereo not drawn) [SULOCTIDIL]			Not Active	Not Active		Not Active	Not Active	Not Active	Not Active							260	167			
O=c1[nH]c(=O)n(C2CCCO2)cc1F (stereo not drawn) [TEGAFUR]	Not Active	Not Active	Not Active	Not Active	Not Active	Not Active	Not Active	Not Active	Not Active											
CC(=N)S [THIOACETAMIDE]	Not Active	Not Active	Not Active	Not Active	Not Active	Not Active	Not Active	Not Active	Not Active											
Cc1ccc(C(=O)c2ccc(CC(=O)O)n2C)cc1 [TOLMETIN]	Not Active	Not Active	Not Active	Not Active	Not Active	Not Active	Not Active	Not Active	Not Active											
CC(=O)OCC(COC(C)=O)OC(C)=O [TRIACETIN]	Not Active	Not Active	Not Active	Not Active	Not Active	Not Active	Not Active	Not Active	Not Active											
CN1CCN(CCCN2c3ccccc3Sc3ccc(C(F)(F)F)cc32)CC1 [TRIFLUOPERAZINE]	Not Active	Not Active	Not Active	Not Active	Not Active	Not Active			Not Active											
TRANSPLATIN	Not Active	Not Active	Not Active		Not Active	Not Active	Not Active	Not Active										Not Active	Not Active	Not Active
ZIRCONIUM(IV) CHLORIDE	Not Active	Not Active	Not Active		Not Active	Not Active	Not Active	Not Active										Not Active	Not Active	Not Active
